Where “and” joins values, the source holds several entries; their conditions need not be identical. Equal entries are not always repeated.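 Where inhibition never reached the appropriate level, the endpoint shown equals the highest concentration tested. Otherwise, values were interpolated linearly from a five-concentration, 48-hour dose response in 96-well plates. At the GI50, growth is halved. TGI: concentration producing complete growth inhibition.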
How the values were obtained:
Experiment in all cases: DTP human tumour cell line panel, 48 h
[1] = test system: UO-31 renal
[2] = test system: UACC-62 melanoma
[3] = test system: OVCAR-8 ovarian
[4] = test system: NCI-H460 lung
[5] = test system: NCI-H522 lung
[6] = test system: CCRF-CEM leukemia
[7] = test system: HOP-62 NSCLC
[8] = test system: HS 578T breast
[9] = test system: OVCAR-4 ovarian
[10] = test system: NCI-H226 lung
[11] = test system: U251 CNS
[12] = test system: SK-OV-3 ovarian
[13] = test system: HCT-15 colon
[14] = test system: SF-539 CNS
[15] = test system: MALME-3M melanoma
[16] = test system: M14 melanoma
[17] = test system: HCC-2998 colon
[18] = test system: PC-3 prostate
[19] = test system: MOLT-4 leukemia
[20] = test system: UACC-257 melanoma
[21] = test system: SNB-19 CNS
[22] = test system: MCF7 breast
[23] = test system: SNB-75 CNS
[24] = test system: SK-MEL-28 melanoma
[25] = test system: SW-620 colon
[26] = test system: MDA-MB-435
[27] = test system: 786-0 renal
[28] = test system: A498 renal
[29] = test system: A549 NSCLC
[30] = test system: HL-60(TB) leukemia
[31] = test system: TK-10 renal
[32] = test system: MDA-N
[33] = test system: EKVX NSCLC
[34] = test system: K-562 leukemia
[35] = test system: KM12 colon
[36] = test system: RXF 393 renal
[37] = test system: SF-268 CNS
[38] = test system: NCI-H23 lung
[39] = test system: HOP-92 NSCLC
[40] = test system: HT29 colon
[41] = test system: SN12C renal
[42] = test system: NCI/ADR-RES ovarian
[43] = test system: COLO 205 colon
[44] = test system: CAKI-1 renal
[45] = test system: SR leukemia
[46] = test system: OVCAR-3 ovarian
[47] = test system: SK-MEL-2 melanoma
[48] = test system: MDA-MB-231 breast
[49] = test system: T-47D breast
[50] = test system: IGROV1 ovarian
[51] = test system: DU-145 prostate
[52] = test system: RPMI-8226 leukemia
[53] = test system: HCT-116 colon
[54] = test system: OVCAR-5 ovarian
[55] = test system: SF-295 CNS
[56] = test system: BT-549 breast
[57] = test system: ACHN renal
[58] = test system: SK-MEL-5 melanoma

Structure (SMILES): CN1C/C(=C\c2ccccc2[N+](=O)[O-])C(=O)/C(=C/c2ccccc2[N+](=O)[O-])C1
- TGI [1]: 1280 nM and 1120 nM
- TGI [2]: 2130 nM and 3790 nM
- GI50 [3]: 175 nM and 517 nM
- TGI [3]: 328 nM and 1850 nM
- TGI [4]: 4560 nM and 8890 nM
- GI50 [5]: 437 nM and 187 nM
- TGI [5]: 1050 nM and 396 nM
- GI50 [6]: 226 nM and 61.1 nM
- TGI [6]: 542 nM and 568 nM
- TGI [7]: 7800 nM and 8770 nM
- GI50 [8]: 1970 nM and 759 nM
- TGI [8]: 24000 nM and 3420 nM
- GI50 [9]: 708 nM and 298 nM
- TGI [9]: 2270 nM and 940 nM
- TGI [10]: 16300 nM
- TGI [11]: 3830 nM and 3860 nM
- TGI [12]: 12800 nM and 10800 nM
- TGI [13]: 527 nM and 696 nM
- GI50 [14]: 530 nM and 1130 nM
- TGI [14]: 2300 nM and 3860 nM
- GI50 [15]: 1290 nM and 216 nM
- TGI [15]: 2730 nM and 505 nM
- GI50 [16]: 1760 nM and 298 nM
- TGI [16]: 4170 nM and 876 nM
- GI50 [17]: 2260 nM
- TGI [17]: 5520 nM and 3010 nM
- TGI [18]: 6450 nM and 3290 nM
- GI50 [19]: 308 nM
- TGI [19]: 1020 nM and 572 nM
- GI50 [20]: 265 nM and 1460 nM
- TGI [20]: 481 nM and 3500 nM
- TGI [21]: 16600 nM and 19200 nM
- TGI [22]: 1940 nM and 3040 nM
- TGI [23]: 6770 nM and 7570 nM
- GI50 [24]: 906 nM and 1830 nM
- TGI [24]: 3150 nM and 4180 nM
- GI50 [25]: 292 nM
- TGI [25]: 886 nM and 603 nM
- GI50 [26]: 860 nM and 254 nM
- TGI [26]: 3100 nM and 706 nM
- TGI [27]: 1010 nM and 467 nM
- TGI [28]: 4450 nM and 4720 nM
- TGI [29]: 14400 nM and 12900 nM
- GI50 [30]: 239 nM
- TGI [30]: 632 nM and 410 nM
- TGI [31]: 2420 nM and 2170 nM
- GI50 [32]: 783 nM and 298 nM
- TGI [32]: 2910 nM and 1160 nM
- GI50 [33]: 2940 nM and 554 nM
- TGI [33]: 13100 nM and 11000 nM
- GI50 [34]: 250 nM and 89 nM
- TGI [35]: 4650 nM and 2630 nM
- GI50 [36]: 477 nM and 191 nM
- TGI [36]: 1130 nM and 485 nM
- GI50 [37]: 1780 nM and 737 nM
- TGI [37]: 7230 nM and 2860 nM
- GI50 [38]: 868 nM
- TGI [38]: 3260 nM and > 20700 nM
- TGI [39]: 2750 nM and 2610 nM
- GI50 [40]: 173 nM and 169 nM
- TGI [40]: 325 nM and 409 nM
- GI50 [41]: 1980 nM and 809 nM
- TGI [41]: 4880 nM and 2220 nM
- TGI [42]: > 28100 nM and 29400 nM
- TGI [43]: 865 nM and 387 nM
- GI50 [44]: 475 nM and 234 nM
- TGI [44]: 1410 nM and 545 nM
- TGI [45]: 13200 nM and 7930 nM
- GI50 [46]: 503 nM and 179 nM
- TGI [46]: 1640 nM and 717 nM
- TGI [47]: 8870 nM and 4360 nM
- GI50 [48]: 284 nM
- TGI [48]: 911 nM
- GI50 [49]: 1010 nM and 354 nM
- TGI [49]: 4470 nM and 2080 nM
- TGI [50]: 2470 nM and 2100 nM
- TGI [51]: 6660 nM and 3620 nM
- GI50 [52]: 592 nM and 116 nM
- TGI [53]: 546 nM and 415 nM
- GI50 [54]: 3270 nM and 1050 nM
- TGI [54]: 10300 nM and 3870 nM
- GI50 [55]: 5620 nM and 2460 nM
- TGI [55]: 13700 nM and 7000 nM
- GI50 [56]: 149 nM and 626 nM
- TGI [56]: 448 nM and 2090 nM
- GI50 [57]: 532 nM and 228 nM
- TGI [57]: 1460 nM and 628 nM
- TGI [58]: 2310 nM and 2910 nM

Reference: PubChem BioAssay (NCI)
